From US9809861B2, “Method of evaluating inhibitory effect on damp-dry malodor” (Kao Corporation, priority 2012, dated 2017) come the findings set out here.

The structures appear in SMILES notation.

One test deals with Δ9desaturase gene. The test is described as follows: Change in expression amount of Δ9desaturase gene in the presence of test substance (real time PCR). To be noted: for Change in the expression amount of Δ9desaturase gene: Substance (1) 10 ppm, (2)(3)(5)(6) 100 ppm, (4) 500 ppm. The class given is cell-based, Moraxella sp. KMC4-1. The method, then:
(§1) The substances (1) to (7) described below each were added to 4 mL SCD liquid medium (manufactured by NIHON PHARMACEUTICAL CO., LTD). As a control, a medium system not added with any test substance was also prepared. To these medium, one platinum loop of precultured Moraxella sp. KMC4-1 was inoculated and cultured for 24 hours at 35 C while shaking (160 rpm).
(§2) To the cell liquid cultured for 24 hours, 10 mg of 16-methyloctadecanoic acid was added as a sebaceous dirt component. After culturing again for 6 hours at 35° C., the cells were collected. As a control, a system not added with a sebaceous dirt component was also cultured and cells were collected therefrom.
(§3) An RNA sample was prepared from the collected cells in the same manner as in the test example 1.
By mixing 2 μL solution of the prepared template diluted ×20 with distilled sterile water, 12.5 μL of TaKaRa SYBR Premix EX Taq (trade name, manufactured by Takara Bio Inc.), 0.5 μL of the primer (des_F1, […]) containing the oligonucleotide having the base sequence set forth in SEQ ID NO: 13, 0.5 μL of the primer (des_R1, […]) containing the oligonucleotide having the base sequence set forth in SEQ ID NO: 14 and 9.5 μL of distilled sterile water, 25 μL reaction solution for real time PCR was prepared.
(§4) Reaction solutions for real time PCR were prepared in the same manner as above, except that, instead of the primer set including the primer containing the oligonucleotide having the base sequence set forth in SEQ ID NO: 13 and the primer containing the oligonucleotide having the base sequence set forth in SEQ ID NO: 14, the primer set described in Tables 11 to 13 was used.
(§5) The reaction solutions for real time PCR each were subjected to a gene amplification by using an automatic gene amplification thermal cycler DICE Real time system II (manufactured by Takara Bio Inc.), and then the expression amount of each of the fatty acid desaturase gene (the Δ9desaturase gene) and the β oxidation-relating enzyme genes (the fadB gene and the fadD gene) was measured. PCR reaction conditions were 40 cycles of (i) a thermal denaturation reaction at 95° C. for 20 seconds, and (ii) an annealing reaction and an elongation reaction at 60° C. for 30 seconds.
(§6) By having the gene expression of 16S rRNA as an internal standard, and having the gene expression amount when adding no sebaceous dirt component and no test substance as a reference value, change in expression amount of each gene was calculated relative to the reference value. A sample, in which the expression amount of the gene was ½ times or less the reference value, was rated as “A”; a sample, in which the expression amount of the gene was more than ½ times and ⅔ times or less the reference value, was rated as “B”; and a sample, in which the expression amount of the gene was more than ⅔ times the reference value, was rated as “C”.
(In qPCR the cycle at which signal appears reflects the starting amount.)

For another test, the system named is fadB gene. Kind of test: Change in expression amount of fadB gene in the presence of test substance (real time PCR). The class given is cell-based, Moraxella sp. KMC4-1. The conditions noted are these: for Change in the expression amount of fadB gene: Substance (1) 10 ppm, (2)(3)(5)(6) 100 ppm, (4) 500 ppm; for expression amount of the fadB gene by the microorganisms: summary of Table 12. The method, then: as §1, §2, §3, §4, §5, §6

The test system of the next test is Moraxella sp. KMC4-1. The test is described as follows: Bactericidal test. The class given is cell-based. The conditions noted are these: 10^6 CFU/mL, 2 hours, 25° C.; Substance (1) 10 ppm, (2)(3)(5)(6) 100 ppm, (4) 500 ppm. The method, then:
To 5 mL of a test solution in which the substances (1) to (7) each were added so as to be the final concentration described in Table 15, the precultured Moraxella sp. KMC4-1 was inoculated so as to be the concentration of 10^6 CFU/mL and cultured for 2 hours at 25° C. while shaking (160 rpm). After that, it was subjected to serial dilution using LP dilution solution (NIHON PHARMACEUTICAL CO., LTD). Then, by using SCD-LP agar medium (NIHON PHARMACEUTICAL CO., LTD), the number of bacteria remained alive was determined.
As for the growth-inhibitory and the bactericidal effect, the evaluation was made as follows: compared to the control, when there was the bacteria number decrease of log 3 or more, it was rated as “A”; when there was the bacteria number decrease of log 1 or more but less than log 3, it was rated as “B”; and when there was the bacteria number decrease of less than log 1, it was rated as “C”.

A further test has as its system fadD gene. Kind of test: Change in expression amount of fadD gene in the presence of test substance (real time PCR). In kind it is cell-based, Moraxella sp. KMC4-1. The conditions noted are these: for Change in the expression amount of fadD gene: Substance (1) 10 ppm, (2)(3)(5)(6) 100 ppm, (4) 500 ppm; for expression amount of the fadD gene by the microorganisms: summary of Table 13. The method, then:
as §1, §2, §3, §4, §5, §6

The mark [1] stands for this setting: primers SEQ ID NO: 13 / 14, 16-methyloctadecanoic acid added, relative to reference without sebaceous dirt component and test substance.

Regarding `CCCCCCCCCC=O` [Substance (1)], the “Change in the expression amount of Δ9desaturase gene” value (from here on “Change … of Δ9desaturase gene”) in the test on Δ9desaturase gene (setting [1]) is “B (the expression amount of the gene was more than ½ times and ⅔ times or less the reference value)”; in the test with Δ9desaturase gene (primers SEQ ID NO: 15 / 16), “B (the expression amount of the gene was more than ½ times and ⅔ times or less the reference value)”; with Δ9desaturase gene (primers SEQ ID NO: 17 / 18), “A (the expression amount of the gene was ½ times or less the reference value)”; in the test with Δ9desaturase gene (primers SEQ ID NO: 19 / 20) it was “A (the expression amount of the gene was ½ times or less the reference value)”; with Δ9desaturase gene (primers SEQ ID NO: 21 / 22), “B (the expression amount of the gene was more than ½ times and ⅔ times or less the reference value)”; in the test on Δ9desaturase gene (primers SEQ ID NO: 23 / 24), “B (the expression amount of the gene was more than ½ times and ⅔ times or less the reference value)”. In the test with Δ9desaturase gene (summary of Table 11), the “expression amount of the Δ9desaturase gene by the microorganisms” value is “decreased”. Besides, the “Change in the expression amount of fadB gene” value (“Change … of fadB gene” below) in the test with fadB gene (primers SEQ ID NO: 25 / 26), in the test with fadB gene (primers SEQ ID NO: 27 / 28), in the test with fadB gene (primers SEQ ID NO: 29 / 30) and with fadB gene (primers SEQ ID NO: 31 / 32) was “C (the expression amount of the gene was more than ⅔ times the reference value)” in each case. For the same compound, the Bactericidal effect entry with Moraxella sp. KMC4-1 was “C (the bacteria number decrease of less than log 1)”. Moreover, the “Change in the expression amount of fadD gene” value (shortened to “Change … of fadD gene”) with fadD gene (primers SEQ ID NO: 35 / 36) and in the test with fadD gene (primers SEQ ID NO: 41 / 42) was “A (the expression amount of the gene was ½ times or less the reference value)” throughout. Moreover, in the test with fadD gene, the “expression amount of the fadD gene by the microorganisms” value (“expression amount of the fadD gene” for short) is recorded as “decreased”.

`CC(=O)OC(C)(C)Cc1ccccc1` [Substance (2)]: the “Change … of Δ9desaturase gene” value with Δ9desaturase gene (setting [1]) was “C (the expression amount of the gene was more than ⅔ times the reference value)”; in the test on Δ9desaturase gene (primers SEQ ID NO: 15 / 16), “B (the expression amount of the gene was more than ½ times and ⅔ times or less the reference value)”; with Δ9desaturase gene (primers SEQ ID NO: 17 / 18), “B (the expression amount of the gene was more than ½ times and ⅔ times or less the reference value)”; in the test with Δ9desaturase gene (primers SEQ ID NO: 19 / 20), “B (the expression amount of the gene was more than ½ times and ⅔ times or less the reference value)”; with Δ9desaturase gene (primers SEQ ID NO: 21 / 22) it was “C (the expression amount of the gene was more than ⅔ times the reference value)”; in the test on Δ9desaturase gene (primers SEQ ID NO: 23 / 24) it was “C (the expression amount of the gene was more than ⅔ times the reference value)”. Besides, the “Change … of fadB gene” value in the test with fadB gene (primers SEQ ID NO: 25 / 26), in the test with fadB gene (primers SEQ ID NO: 27 / 28), with fadB gene (primers SEQ ID NO: 29 / 30) and in the test with fadB gene (primers SEQ ID NO: 31 / 32) was “A (the expression amount of the gene was ½ times or less the reference value)” each time. Besides, in the test on fadB gene, the “expression amount of the fadB gene by the microorganisms” value was “decreased”. For the same compound, the Bactericidal effect result with Moraxella sp. KMC4-1 is reported as “C (the bacteria number decrease of less than log 1)”. Moreover, the “Change … of fadD gene” value with fadD gene (primers SEQ ID NO: 35 / 36) and with fadD gene (primers SEQ ID NO: 41 / 42) was “A (the expression amount of the gene was ½ times or less the reference value)” throughout. The “expression amount of the fadD gene” value in the test with fadD gene is given as “decreased”.

With `CNc1ccccc1C(=O)OC` [Substance (3)], the “Change … of Δ9desaturase gene” value in the test with Δ9desaturase gene (setting [1]), in the test with Δ9desaturase gene (primers SEQ ID NO: 15 / 16), in the test with Δ9desaturase gene (primers SEQ ID NO: 17 / 18), in the test with Δ9desaturase gene (primers SEQ ID NO: 19 / 20), with Δ9desaturase gene (primers SEQ ID NO: 21 / 22) and in the test with Δ9desaturase gene (primers SEQ ID NO: 23 / 24) was “C (the expression amount of the gene was more than ⅔ times the reference value)” each time. The “Change … of fadB gene” value was “A (the expression amount of the gene was ½ times or less the reference value)” with fadB gene (primers SEQ ID NO: 25 / 26); “A (the expression amount of the gene was ½ times or less the reference value)” in the test on fadB gene (primers SEQ ID NO: 27 / 28); “A (the expression amount of the gene was ½ times or less the reference value)” with fadB gene (primers SEQ ID NO: 29 / 30); “B (the expression amount of the gene was more than ½ times and ⅔ times or less the reference value)” in the test on fadB gene (primers SEQ ID NO: 31 / 32). Further, the “expression amount of the fadB gene by the microorganisms” value in the test with fadB gene is “decreased”. In addition, the Bactericidal effect result in the test with Moraxella sp. KMC4-1 was “C (the bacteria number decrease of less than log 1)”. In addition, the “Change … of fadD gene” value in the test on fadD gene (primers SEQ ID NO: 35 / 36) and with fadD gene (primers SEQ ID NO: 41 / 42) was “A (the expression amount of the gene was ½ times or less the reference value)” throughout. Moreover, the “expression amount of the fadD gene” value with fadD gene was “decreased”.
